Reference: patent US6410054B1, “Immediate release eplerenone compositions” (G. D. Searle & Co., priority 1998, dated 2002)

How the values were obtained:
[1] = Single dose study: plasma pharmacokinetics of eplerenone, open lactone ring form, spironolactone
Experimental: The pharmacokinetics, safety and antialdosterone activity of single 10, 50, 100, 300 and 1000 mg oral doses of eplerenone were evaluated in a single-center, randomized, double-blind, placebo-controlled study.
The study employed seven parallel dose groups of eight healthy male humans.
The eplerenone capsules administered corresponded to the capsules (or combinations of the capsules) disclosed in Examples 4, 5, 7 and 8 above. The placebo was a conventional capsule containing lactose. […] The fludrocortisone used in the study consisted of commercially available fludrocortisone tablets (Florinef®, Squibb BV).
The subjects, who underwent a ten hour food fast prior to administration of the dose, received a single oral dose of one of the study medications together with about 180 mL of water at 0800 hours. […] Each dose of fludrocortisone was administered with 150 mL of water except for the 1.0 mg dose which was administered with 200 mL of water.
The plasma samples collected from subjects dosed with eplerenone were assayed for concentrations of eplerenone and the open lactone ring form of eplerenone. […] A subset of plasma samples was also assayed for testosterone levels. The urine collected was analyzed to determine concentrations and amounts of eplerenone and the open lactone ring form of eplerenone, the amount of sodium and potassium excreted, and the urinary log10 (sodium/potassium) ratio.

[2] = ADME study of [14C]eplerenone oral solution: plasma, whole blood, saliva pharmacokinetics; assay type: in vivo, humans; settings: for Total Radioactivity AUC0-inf (± SEM) / Total Radioactivity Cmax (± SEM): 100 mg [14C]eplerenone oral solution
Experimental: (§1) An open-label, single dose study was employed to evaluate the absorption, distribution, metabolism and elimination profile of a single 100 mg dose of an oral solution of eplerenone.
(§2) The study employed eight healthy male humans. Each subject received a single 100 mg oral dose of a solution of [^14C]eplerenone (specific activity 0.75 μCi/mg). Plasma, saliva, breath, urine and fecal samples were collected at predetermined intervals and analyzed for sample radioactivity and the concentration of eplerenone and its open lactone ring form. Safety was determined on the basis of laboratory tests, vital signs, and the occurrence and types of adverse events.
(§3) The subjects, who underwent an overnight food fast prior to administration of the dose, received at 0800 hours a single 100 mg oral dose of an aqueous oral solution of radiolabeled eplerenone reconstituted in 80 mL of an apple juice/hydroxypropyl-β-cyclodextrin mixture. The subjects swallowed about 200 mL of water one, two and three hours post dosing.
(§4) Blood samples were collected at −0.5 (predose), 0.5, 1, 1.5, 2, 2.5, 3, 4, 6, 8, 12, 16, 24, 36, 48, 72 and 96 hours post dose. […] Individual fecal samples were collected beginning immediately after dosing and continuing through 0800 hours on day 8. In addition, one predose fecal sample was provided. Saliva samples were taken at 0.5 hour predose and at 0.5, 1, 2, 4, 6, 12, and 24 hours postdose. Breath samples were taken at 0.5 hour predose and at 1, 2, 3, 4, 6, 8, 12, 24, 36, 48 and 72 hours postdose.

[3] = ADME study of [14C]eplerenone oral solution: excretion in urine, feces, breath; assay type: in vivo, humans
Experimental: as §1, §2, §3, §4

[4] = male, human, plasma, po, 300 mg
[5] = male, human, plasma, po, 1000 mg
[6] = male, human, plasma, 100 mg eplerenone oral solution, single dose
[7] = 100 mg [14C]eplerenone oral solution
[8] = 100 mg [14C]eplerenone oral solution, mean

COC(=O)C1CC2=CC(=O)CCC2(C)C23OC2CC2(C)C(CC[C@@]24CCC(=O)O4)C13 (stereo partly drawn) [eplerenone, methyl hydrogen 9,11α-epoxy-17α-hydroxy-3-oxopregn-4-ene-7α,21-dicarboxylate, γ-lactone]
concentration at 0.5 h [1, 4]: 1620 ng/mL
concentration at 1 h [1, 4]: 2680 ng/mL
concentration at 2 h [1, 4]: 2780 ng/mL
concentration at 3 h [1, 4]: 2220 ng/mL
concentration at 4 h [1, 4]: 1950 ng/mL
concentration at 6 h [1, 4]: 1270 ng/mL
concentration at 8 h [1, 4]: 843 ng/mL
concentration at 12 h [1, 4]: 333 ng/mL
concentration at 16 h [1, 4]: 142 ng/mL
concentration at 24 h [1, 4]: 38.3 ng/mL
concentration at 28 h [1, 4]: 21.1 ng/mL
concentration at 32 h [1, 4]: 11.3 ng/mL
concentration at 48 h [1, 4]: 1.7 ng/mL
concentration at 72 h [1, 4]: 0 ng/mL
concentration at 96 h [1, 4]: 0 ng/mL
half-life [1, 4]: 222 min
AUC(0-t) [1, 5]: 56400 ng·h/mL
Cmax [1, 5]: 7260 ng/mL
MRT [1, 5]: 7 h
Tmax [1, 5]: 2.5 h
concentration at 0.5 h [1, 5]: 3180 ng/mL
concentration at 1 h [1, 5]: 5260 ng/mL
concentration at 2 h [1, 5]: 5940 ng/mL
concentration at 3 h [1, 5]: 6810 ng/mL
concentration at 4 h [1, 5]: 6220 ng/mL
concentration at 6 h [1, 5]: 4150 ng/mL
concentration at 8 h [1, 5]: 2830 ng/mL
concentration at 12 h [1, 5]: 1340 ng/mL
concentration at 16 h [1, 5]: 647 ng/mL
concentration at 24 h [1, 5]: 208 ng/mL
concentration at 28 h [1, 5]: 107 ng/mL
concentration at 32 h [1, 5]: 61.7 ng/mL
concentration at 48 h [1, 5]: 22.3 ng/mL
concentration at 72 h [1, 5]: 1.4 ng/mL
concentration at 96 h [1, 5]: 0 ng/mL
half-life [1, 5]: 906 min
relationship between eplerenone dose and plasma concentration ([1]; single 10-1000 mg oral doses): linear relationship
concentration of total radioactivity ([2]; 1.5 hour plasma samples, mean): 2.39 µg/mL
Total Radioactivity AUC0-inf (± SEM) ([2]; Plasma): 18400 ± 1200 ng equivalents hr/mL
Total Radioactivity Cmax (± SEM) ([2]; Plasma): 2490 ± 110 ng equivalents/mL
Total Radioactivity AUC0-inf (± SEM) ([2]; Saliva): 7960 ± 500 ng equivalents hr/mL
Total Radioactivity Cmax (± SEM) ([2]; Saliva): 2170 ± 280 ng equivalents/mL
Total Radioactivity AUC0-inf (± SEM) ([2]; Whole Blood): 12800 ± 800 ng equivalents hr/mL
Total Radioactivity Cmax (± SEM) ([2]; Whole Blood): 1770 ± 80 ng equivalents/mL
concentration at 0.5 h ([2]; male, human, plasma, 100 mg oral solution of [14C]eplerenone, 0.5 hours after dosing): 1340 ng/mL
concentration at 1 h ([2]; male, human, plasma, 100 mg oral solution of [14C]eplerenone, 1.0 hours after dosing): 1620 ng/mL
concentration at 1.5 h ([2]; male, human, plasma, 100 mg oral solution of [14C]eplerenone, 1.5 hours after dosing): 1590 ng/mL
concentration at 2 h ([2]; male, human, plasma, 100 mg oral solution of [14C]eplerenone, 2.0 hours after dosing): 1420 ng/mL
concentration at 2.5 h ([2]; male, human, plasma, 100 mg oral solution of [14C]eplerenone, 2.5 hours after dosing): 1260 ng/mL
concentration at 3 h ([2]; male, human, plasma, 100 mg oral solution of [14C]eplerenone, 3.0 hours after dosing): 1180 ng/mL
concentration at 4 h ([2]; male, human, plasma, 100 mg oral solution of [14C]eplerenone, 4.0 hours after dosing): 1000 ng/mL
concentration at 6 h ([2]; male, human, plasma, 100 mg oral solution of [14C]eplerenone, 6.0 hours after dosing): 596 ng/mL
concentration at 8 h ([2]; male, human, plasma, 100 mg oral solution of [14C]eplerenone, 8.0 hours after dosing): 391 ng/mL
concentration at 12 h ([2]; male, human, plasma, 100 mg oral solution of [14C]eplerenone, 12.0 hours after dosing): 149 ng/mL
concentration at 16 h ([2]; male, human, plasma, 100 mg oral solution of [14C]eplerenone, 16.0 hours after dosing): 68 ng/mL
concentration at 24 h ([2]; male, human, plasma, 100 mg oral solution of [14C]eplerenone, 24.0 hours after dosing): 17.3 ng/mL
concentration at 36 h ([2]; male, human, plasma, 100 mg oral solution of [14C]eplerenone, 36.0 hours after dosing): 0 ng/mL
concentration at 48 h ([2]; male, human, plasma, 100 mg oral solution of [14C]eplerenone, 48.0 hours after dosing): 0 ng/mL
concentration at 72 h ([2]; male, human, plasma, 100 mg oral solution of [14C]eplerenone, 72.0 hours after dosing): 0 ng/mL
concentration at 96 h ([2]; male, human, plasma, 100 mg oral solution of [14C]eplerenone, 96.0 hours after dosing): 0 ng/mL
concentration at -0.5 h ([2]; male, human, plasma, 100 mg oral solution of [14C]eplerenone, −0.5 hours after dosing): 0 ng/mL
Cmax [2, 6]: 1720 ng/mL
half-life [2, 6]: 228 min
AUC(0-t) ([2]; male, human, plasma, 100 mg eplerenone oral solution, single dose, read-out: AUC(0-96)): 9540 ng·h/mL
MRT ([2]; male, human, plasma, 100 mg eplerenone oral solution, single dose, read-out: Mean Residence Time): 4.8 h
Tmax ([2]; male, human, plasma, 100 mg eplerenone oral solution, single dose, read-out: Tmax): 1.3 h
Oral Clearance ([2]; plasma, 100 mg eplerenone oral solution, single dose): 11.4 L/h
share of urinary and fecal radioactivity due to eplerenone [3, 7]: less than 15%
urinary radioactivity excreted within the first 24 hours [3, 7]: Over 90%
dose excreted as total radioactivity in feces [3, 8]: 32.0%
dose excreted as total radioactivity in urine [3, 8]: 66.6%
dose excreted in feces as the named form [3, 8]: 0.807%
dose excreted in urine as the named form [3, 8]: 1.65%
total radioactivity in the breath ([3]; any time point, any subject): no detectable concentrations
